One series can be described thus: in vitro. Conditions: uninfected Vero E6 cells.
In series [1] the target is ACE2:SARS-CoV-2 Spike interaction (UniProt P0DTC2+Q9BYF1). Briefly: biochemical. The class given is binding.
Series [2] concerns the target SARS-CoV-2 Spike: ACE2 interaction (UniProt P0DTC2+Q9BYF1). Briefly: biochemical. The class given is binding.
Series [3] is described as follows: Nanoparticle formation of peptides with ADGN-106: mean size and polydispersity (Zetasizer). The class given is physicochemical. The conditions noted are these: 25° C.; for Mean Size (nm): peptide/ADGN-106 complexes; for PI: polydispersity index of peptide/ADGN-106 complexes. From the text: We then tested the ability of the different peptides to form nanoparticle organization in the presence of ADGN-106 or ADGN-100 peptide. […] Peptides were complexed with 5 or 10 molar excess of ADGN-106.

In series [4] the test system is SARS-CoV-2 Nucleocapsid gene. The class given is cell-based.

This note sets out measurements from patent publication US20230304010A1, “COMPOSITIONS AND METHODS FOR TREATING VIRAL INFECTIONS” (priority 2020, published 2023).

Where two headings read alike, the source gives them in different places. Ends that are not written are not given here.

ACE2:SARS-CoV-2 Spike interaction, sequence (Q9BYF1 18-740, one chain of several): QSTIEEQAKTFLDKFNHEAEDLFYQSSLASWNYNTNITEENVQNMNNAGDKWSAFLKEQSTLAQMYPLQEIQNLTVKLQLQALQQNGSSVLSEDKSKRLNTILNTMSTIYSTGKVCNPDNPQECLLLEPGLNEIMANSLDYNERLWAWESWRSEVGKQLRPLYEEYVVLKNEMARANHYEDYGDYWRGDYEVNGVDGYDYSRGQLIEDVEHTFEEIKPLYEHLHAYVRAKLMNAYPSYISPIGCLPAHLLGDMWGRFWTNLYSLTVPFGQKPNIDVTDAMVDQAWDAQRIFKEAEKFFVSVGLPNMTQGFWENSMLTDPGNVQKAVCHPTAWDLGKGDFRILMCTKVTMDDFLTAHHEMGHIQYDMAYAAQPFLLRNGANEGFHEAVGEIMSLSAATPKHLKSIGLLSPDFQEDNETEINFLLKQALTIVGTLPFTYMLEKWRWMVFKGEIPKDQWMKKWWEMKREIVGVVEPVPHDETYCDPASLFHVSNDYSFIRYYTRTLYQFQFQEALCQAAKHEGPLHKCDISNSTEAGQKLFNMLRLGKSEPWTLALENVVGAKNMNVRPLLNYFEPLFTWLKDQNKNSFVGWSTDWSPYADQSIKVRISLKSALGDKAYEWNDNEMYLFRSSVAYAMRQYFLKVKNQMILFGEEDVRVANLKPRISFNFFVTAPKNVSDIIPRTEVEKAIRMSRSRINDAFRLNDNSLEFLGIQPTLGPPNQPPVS
SARS-CoV-2 Spike: ACE2 interaction, sequence (Q9BYF1 18-740, one chain of several): as above

In “in vitro”, `CC(C)C[C@H](NC(=O)[C@H](C)NC(=O)[C@H](CCCNC(=N)N)NC(=O)[C@H](Cc1c[nH]c2ccccc12)NC(=O)[C@@H](N)CC(C)C)C(=O)N[C@@H](Cc1c[nH]c2ccccc12)C(=O)N[C@@H](CCCNC(=N)N)C(=O)N[C@@H](CC(C)C)C(=O)N[C@@H](Cc1c[nH]c2ccccc12)C(=O)N[C@@H](CCCNC(=N)N)C(=O)N[C@@H](CO)C(=O)N[C@@H](CC(C)C)C(=O)N[C@@H](Cc1c[nH]c2ccccc12)C(=O)N[C@@H](CCCNC(=N)N)C(=O)N[C@@H](CC(C)C)C(=O)N[C@@H](CC(C)C)C(=O)N[C@@H](Cc1c[nH]c2ccccc12)C(=O)N[C@@H](CCCCN)C(=O)O` [ADGN-106, reference compound] registered a CC50 of 356000 ± 64000 nM and a viability at 0.5 µM of 84%.

For `CC(=O)N[C@@H](Cc1ccc(O)cc1)C(=O)N[C@@H](Cc1ccccc1)C(=O)N1CCC[C@H]1C(=O)N[C@@H](CC(C)C)C(=O)N[C@@H](CCC(N)=O)C(=O)N[C@@H](CO)C(=O)N[C@@H](Cc1ccc(O)cc1)C(=O)NCC(=O)N[C@@H](Cc1ccccc1)C(=O)N[C@@H](CCC(N)=O)C(=O)N1CCC[C@H]1C(=O)N[C@H](C(=O)N[C@@H](CC(N)=O)C(=O)NCC(=O)N[C@H](C(=O)NCC(=O)N[C@@H](Cc1ccc(O)cc1)C(=O)N[C@@H](CCC(N)=O)C(=O)NCCCCC(=O)N[C@@H](CC(C)C)C(=O)N[C@@H](Cc1c[nH]c2ccccc12)C(=O)N[C@@H](CCCNC(=N)N)C(=O)N[C@@H](C)C(=O)N[C@@H](CC(C)C)C(=O)N[C@@H](Cc1c[nH]c2ccccc12)C(=O)N[C@@H](CCCNC(=N)N)C(=O)N[C@@H](CC(C)C)C(=O)N[C@@H](Cc1c[nH]c2ccccc12)C(=O)N[C@@H](CCCNC(=N)N)C(=O)N[C@@H](CO)C(=O)N[C@@H](CC(C)C)C(=O)N[C@@H](Cc1c[nH]c2ccccc12)C(=O)N[C@@H](CCCNC(=N)N)C(=O)N[C@@H](CC(C)C)C(=O)N[C@@H](CC(C)C)C(=O)N[C@@H](Cc1c[nH]c2ccccc12)C(=O)N[C@@H](CCCCN)C(N)=O)C(C)C)[C@@H](C)O` [Seq19], in series [1], the “blocked ACE2:SARS-CoV-2 Spike interaction” value is given as “blocked”. In series [1] (ACE2:SARS-CoV-2 Spike IC50), it took 349 ± 26 nM to reach half-maximal inhibition (IC50). The “blocked SARS-CoV-2 Spike: ACE2 interaction” value in series [2] is “blocked”. In series [2] (SARS-CoV-2 Spike:ACE2 IC50), this compound showed an IC50 of 90.6 nM. In addition, in series [3], the “Mean Size (nm)” value is reported as 37.2 ± 5 nm and the PI is given as 0.24. The “Residual Infection (%)” value in the series on SARS-CoV-2 worked out at 90%. In the series “in vitro”, this compound registered a viability at 0.5 µM of 87%.

`CC(=O)N[C@@H](CCCCN)C(=O)N[C@H](C(=O)N[C@@H](Cc1ccccc1)C(=O)N[C@@H](CC(C)C)C(=O)N[C@@H](CC(=O)O)C(=O)N[C@@H](CCCCN)C(=O)N[C@@H](Cc1ccccc1)C(=O)N[C@@H](CC(N)=O)C(=O)N[C@@H](Cc1c[nH]cn1)C(=O)N[C@@H](CCC(=O)O)C(=O)N[C@@H](C)C(=O)N[C@@H](CCC(=O)O)C(=O)N[C@@H](CC(=O)O)C(=O)N[C@@H](CC(C)C)C(=O)N[C@@H](Cc1ccccc1)C(=O)NCCCCCC(=O)N[C@@H](CC(C)C)C(=O)N[C@@H](Cc1c[nH]c2ccccc12)C(=O)N[C@@H](CCCNC(=N)N)C(=O)N[C@@H](C)C(=O)N[C@@H](CC(C)C)C(=O)N[C@@H](Cc1c[nH]c2ccccc12)C(=O)N[C@@H](CCCNC(=N)N)C(=O)N[C@@H](CC(C)C)C(=O)N[C@@H](Cc1c[nH]c2ccccc12)C(=O)N[C@@H](CCCNC(=N)N)C(=O)N[C@@H](CO)C(=O)N[C@@H](CC(C)C)C(=O)N[C@@H](Cc1c[nH]c2ccccc12)C(=O)N[C@@H](CCCNC(=N)N)C(=O)N[C@@H](CC(C)C)C(=O)N[C@@H](CC(C)C)C(=O)N[C@@H](Cc1c[nH]c2ccccc12)C(=O)N[C@@H](CCCCN)C(N)=O)[C@@H](C)O` [Seq34]: the IC50 in series [1] (ACE2:SARS-CoV-2 Spike IC50) and in series [2] (SARS-CoV-2 Spike:ACE2 IC50) was above 1000 nM throughout. In addition, the “Residual Infection (%)” value in the series with SARS-CoV-2 is recorded as 100%. In addition, in the series “in vitro”, the viability at 0.5 µM turned out to be 98%.

On to `CSCC[C@H](NC(=O)[C@H](CCC(N)=O)NC(=O)[C@H](C)NC(=O)[C@H](CC(C)C)NC(=O)[C@@H](NC(=O)[C@H](CO)NC(=O)[C@H](CCC(N)=O)NC(=O)[C@H](CCC(=O)O)NC(=O)[C@H](CCCCN)NC(=O)[C@H](CC(C)C)NC(=O)[C@H](Cc1ccccc1)NC(=O)[C@H](C)NC(=O)[C@H](CO)NC(=O)[C@H](Cc1c[nH]c2ccccc12)NC(=O)[C@H](CCCCN)NC(=O)[C@@H]1CCCN1C(=O)[C@H](Cc1ccccc1)NC(=O)[C@H](CC(C)C)NC(=O)[C@H](CC(=O)O)NC(=O)[C@H](CCC(=O)O)NC(=O)[C@H](C)NC(=O)[C@H](CCC(=O)O)NC(=O)[C@H](Cc1c[nH]cn1)NC(=O)[C@H](CC(N)=O)NC(=O)[C@H](Cc1ccccc1)NC(=O)[C@H](CCCCN)NC(=O)[C@H](CC(=O)O)NC(=O)[C@H](CC(C)C)NC(=O)[C@H](Cc1ccccc1)NC(=O)[C@@H](NC(=O)[C@H](CCCCN)NC(=O)[C@H](C)NC(=O)[C@H](CCC(N)=O)NC(=O)[C@H](CCC(=O)O)NC(C)=O)[C@@H](C)O)[C@@H](C)O)C(=O)N[C@@H](Cc1ccc(O)cc1)C(=O)NCC(=O)NCCCCCC(=O)N[C@@H](CC(C)C)C(=O)N[C@@H](Cc1c[nH]c2ccccc12)C(=O)N[C@@H](CCCNC(=N)N)C(=O)N[C@@H](C)C(=O)N[C@@H](CC(C)C)C(=O)N[C@@H](Cc1c[nH]c2ccccc12)C(=O)N[C@@H](CCCNC(=N)N)C(=O)N[C@@H](CC(C)C)C(=O)N[C@@H](Cc1c[nH]c2ccccc12)C(=O)N[C@@H](CCCNC(=N)N)C(=O)N[C@@H](CO)C(=O)N[C@@H](CC(C)C)C(=O)N[C@@H](Cc1c[nH]c2ccccc12)C(=O)N[C@@H](CCCNC(=N)N)C(=O)N[C@@H](CC(C)C)C(=O)N[C@@H](CC(C)C)C(=O)N[C@@H](Cc1c[nH]c2ccccc12)C(=O)N[C@@H](CCCCN)C(N)=O` [Seq39], for which, in series [1], the “increase of potency/efficiency by covalent coupling to ADGN peptide” value amounted to 1.4 folds. The compound also registered an IC50 in series [1] (ACE2:SARS-CoV-2 Spike IC50) of 68.4 ± 10 nM. This compound had an IC50 in series [2] (SARS-CoV-2 Spike:ACE2 IC50) of 55.2 nM. Further, in series [3], the “Mean Size (nm)” value was determined as 48.5 ± 5 nm and the PI came out at 0.29.

As for `CSCC[C@H](NC(=O)[C@H](CCC(N)=O)NC(=O)[C@H](C)NC(=O)[C@H](CC(C)C)NC(=O)[C@@H](NC(=O)[C@H](CO)NC(=O)[C@H](CCC(N)=O)NC(=O)[C@H](CCC(=O)O)NC(=O)[C@H](CCCCN)NC(=O)[C@H](CC(C)C)NC(=O)[C@H](Cc1ccccc1)NC(=O)[C@H](C)NC(=O)[C@H](CO)NC(=O)[C@H](Cc1c[nH]c2ccccc12)NC(=O)[C@H](CCCCN)NC(=O)[C@@H]1CCCN1C(=O)[C@H](Cc1ccccc1)NC(=O)[C@H](CC(C)C)NC(=O)[C@H](CC(=O)O)NC(=O)[C@H](CCC(=O)O)NC(=O)[C@H](C)NC(=O)[C@H](CCC(=O)O)NC(=O)[C@H](Cc1c[nH]cn1)NC(=O)[C@H](CC(N)=O)NC(=O)[C@H](Cc1ccccc1)NC(=O)[C@H](CCCCN)NC(=O)[C@H](CC(=O)O)NC(=O)[C@H](CC(C)C)NC(=O)[C@H](Cc1ccccc1)NC(=O)[C@@H](NC(=O)[C@H](CCCCN)NC(C)=O)[C@@H](C)O)[C@@H](C)O)C(=O)N[C@@H](Cc1ccc(O)cc1)C(=O)NCC(=O)NCCCCCC(=O)N[C@@H](CC(C)C)C(=O)N[C@@H](Cc1c[nH]c2ccccc12)C(=O)N[C@@H](CCCNC(=N)N)C(=O)N[C@@H](C)C(=O)N[C@@H](CC(C)C)C(=O)N[C@@H](Cc1c[nH]c2ccccc12)C(=O)N[C@@H](CCCNC(=N)N)C(=O)N[C@@H](CC(C)C)C(=O)N[C@@H](Cc1c[nH]c2ccccc12)C(=O)N[C@@H](CCCNC(=N)N)C(=O)N[C@@H](CO)C(=O)N[C@@H](CC(C)C)C(=O)N[C@@H](Cc1c[nH]c2ccccc12)C(=O)N[C@@H](CCCNC(=N)N)C(=O)N[C@@H](CC(C)C)C(=O)N[C@@H](CC(C)C)C(=O)N[C@@H](Cc1c[nH]c2ccccc12)C(=O)N[C@@H](CCCCN)C(N)=O` [Seq40], in series [1], the “increase of potency/efficiency by covalent coupling to ADGN peptide” value was determined as 1.4 folds. For the same compound, the IC50 in series [1] (ACE2:SARS-CoV-2 Spike IC50) was determined as 85.4 ± 12 nM; in series [2] (SARS-CoV-2 Spike:ACE2 IC50) it was 45.1 nM. In series [3], the “Mean Size (nm)” value was found to be 54.5 ± 14 nm. The same compound displayed a PI in series [3] of 0.31.

Turning to “AAGCATATTGACGCATACAAA (chemistry not given here) [DIVC-9]”, the 50% inhibitory concentration (IC50) in series [4] was found to be 394 nM.

With “Ac-EQAKTFLDKFNHEAEDLFPKWSAFLKEQSTLAQMYG [Seq27]”, in series [1], the “folds more potent than SBP-1-ADGN-106/ADGN-106 complex” value worked out at 6 folds, the “folds more potent than SBP-1 coupled to ADGN-106” value is 6 folds, the “folds more potent than SBP-1 peptide/ADGN-106 complex” value came out at 40 folds and the “folds more potent than free SBP-1” value is 15 folds. In series [2], the “folds more potent than SBP-1-ADGN-106/ADGN-106 complex” value stood at 4 folds, the “folds more potent than SBP-1 coupled to ADGN-106” value is 3.5 folds, the “folds more potent than SBP-1 peptide/ADGN-106 complex” value was found to be 35 folds and the “folds more potent than free SBP-1” value is 7 folds. For the same compound, in series [3], the “Mean Size (nm)” value worked out at 62.1 ± 10 nm and the PI amounted to 0.21.

For the compound “Ac-T*EYQAGSTK*Ava-LWRALWRLWRSLWRLLWK-NH2 [Seq16]”, the IC50 in series [1] (read-out: ACE2:SARS-CoV-2 Spike IC50) was above 10000 nM; in series [2] (read-out: SARS-CoV-2 Spike:ACE2 IC50) it was above 1000 nM. Also, in series [3], the “Mean Size (nm)” value was 44.2 ± 7 nm. In addition, the PI in series [3] worked out at 0.28.

For the compound “GACCAGGAACTAATCAGACAA (chemistry not given here) [DIVC-2]”, the IC50 in series [4] was above 500 nM.

“GACTTCCCTATGGTGCTAACA (chemistry not given here) [DIVC-4]” gave an IC50 in series [4] of 254 nM.

On to “GCAACAATCCATGAGCAGTGC (chemistry not given here) [DIVC-10]”, for which the IC50 in series [4] worked out at 28.4 nM.

In series [4], “GCAACTGAGGGAGCCTTGAAT (chemistry not given here) [DIVC-1]” returned an IC50 above 500 nM.

The compound “GCAGACGTGGTCCAGAACAAA (chemistry not given here) [DIVC-7]” showed an IC50 in series [4] of 147 nM.

Turning to “GGCTGATGAAACTCAAGCCTT (chemistry not given here) [DIVC-5]”, the IC50 in series [4] is above 500 nM.
